Measured values from patent US20260325533A1, “CDK INHIBITOR COMPOUNDS” (ALEKSIA THERAPEUTICS, INC., priority 2023, published 2026).
Where two headings read alike, the source gives them in different places.

Experiments:
Format in all cases: biochemical
[1] = target: CDK2/CCNE1 (Homo sapiens, UniProt P24941); experiment: CDK2 homogeneous time-resolved fluorescence (HTRF) kinase assay; conditions: CDK2/CCNE
Outline: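 An HTRF format measures CDK2/CCNE1 (3 nM) phosphorylating a 4E-BP1 Thr37/46 peptide at high (1 mM) ATP. Reactions run one hour at 23 °C, then EDTA-quenched and probed with Eu-labelled phospho-specific antibody.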

[2] = target: CDK1/CCNB1 (Homo sapiens, UniProt P06493); experiment: CDK1 homogeneous time-resolved fluorescence (HTRF) kinase assay; conditions: CDK1/CCNB
CDK1/CCNB1, sequence (P06493 whole entry): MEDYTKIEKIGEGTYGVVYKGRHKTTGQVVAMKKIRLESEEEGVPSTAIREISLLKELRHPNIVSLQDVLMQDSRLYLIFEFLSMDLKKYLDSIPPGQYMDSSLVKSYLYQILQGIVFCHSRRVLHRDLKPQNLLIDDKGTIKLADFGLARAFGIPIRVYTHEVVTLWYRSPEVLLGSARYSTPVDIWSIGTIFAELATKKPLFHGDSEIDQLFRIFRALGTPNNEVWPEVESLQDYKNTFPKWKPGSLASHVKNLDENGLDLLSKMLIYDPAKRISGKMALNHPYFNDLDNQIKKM
CDK1/CCNB1, sequence (P14635 whole entry partner): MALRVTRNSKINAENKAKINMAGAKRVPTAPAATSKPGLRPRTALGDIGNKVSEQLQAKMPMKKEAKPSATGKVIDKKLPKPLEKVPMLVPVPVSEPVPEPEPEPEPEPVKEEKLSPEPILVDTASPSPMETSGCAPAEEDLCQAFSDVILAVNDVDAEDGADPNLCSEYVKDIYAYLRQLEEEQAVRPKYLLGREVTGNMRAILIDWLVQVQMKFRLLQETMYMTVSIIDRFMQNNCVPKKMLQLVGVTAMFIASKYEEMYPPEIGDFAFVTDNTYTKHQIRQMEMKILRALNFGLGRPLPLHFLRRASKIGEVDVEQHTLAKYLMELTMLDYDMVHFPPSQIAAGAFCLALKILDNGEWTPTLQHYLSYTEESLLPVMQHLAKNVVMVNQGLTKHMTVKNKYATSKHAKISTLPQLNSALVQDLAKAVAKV
Outline: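 HTRF assay with 0.5 nM CDK1/CCNB1, 1 mM ATP, 50 nM ULight-eIF4E-BP1 (Thr37/46) peptide; compound preincubated 20 min, reaction 60 min at 23 °C, EDTA stop, Eu-anti-phospho antibody detection. 11-point half-log titration from 10 μM, 1% DMSO; IC50 from 665 nm or 665/615 signal.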

[3] = target: CDK4/CCND3 (Homo sapiens, UniProt P11802); experiment: CDK4 homogeneous time-resolved fluorescence (HTRF) kinase assay; conditions: CDK4/CCND
CDK4/CCND3, sequence (P11802 whole entry): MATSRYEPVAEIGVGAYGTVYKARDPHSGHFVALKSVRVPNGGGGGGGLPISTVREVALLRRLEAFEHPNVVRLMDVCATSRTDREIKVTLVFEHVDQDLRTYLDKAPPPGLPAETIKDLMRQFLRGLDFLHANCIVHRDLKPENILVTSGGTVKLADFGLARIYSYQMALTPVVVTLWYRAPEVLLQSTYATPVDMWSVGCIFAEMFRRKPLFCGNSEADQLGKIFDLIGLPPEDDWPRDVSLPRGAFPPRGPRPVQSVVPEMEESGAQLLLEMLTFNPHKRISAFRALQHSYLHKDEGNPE
CDK4/CCND3, sequence (P30281 whole entry partner): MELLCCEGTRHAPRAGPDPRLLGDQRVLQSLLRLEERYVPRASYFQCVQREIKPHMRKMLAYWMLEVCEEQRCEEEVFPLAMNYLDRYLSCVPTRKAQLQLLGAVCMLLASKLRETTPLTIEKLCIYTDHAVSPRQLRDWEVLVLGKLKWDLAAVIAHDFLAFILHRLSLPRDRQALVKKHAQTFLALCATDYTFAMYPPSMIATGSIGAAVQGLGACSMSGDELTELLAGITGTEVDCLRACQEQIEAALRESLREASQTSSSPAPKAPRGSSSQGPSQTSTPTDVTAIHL
Outline: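 HTRF kinase assay, CDK4/CCND3 1.5 nM, ATP 1 mM, ULight-4E-BP1 peptide 50 nM, 23 °C, 60 min reaction after 20 min preincubation. Eu-anti-pThr37/46 antibody detection. 11-pt half-log curves from 10 μM → IC50.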

[4] = target: CDK6/CCND1 (Homo sapiens, UniProt Q00534); experiment: CDK6 homogeneous time-resolved fluorescence (HTRF) kinase assay; conditions: CDK6/CCND
CDK6/CCND1, sequence (Q00534 whole entry): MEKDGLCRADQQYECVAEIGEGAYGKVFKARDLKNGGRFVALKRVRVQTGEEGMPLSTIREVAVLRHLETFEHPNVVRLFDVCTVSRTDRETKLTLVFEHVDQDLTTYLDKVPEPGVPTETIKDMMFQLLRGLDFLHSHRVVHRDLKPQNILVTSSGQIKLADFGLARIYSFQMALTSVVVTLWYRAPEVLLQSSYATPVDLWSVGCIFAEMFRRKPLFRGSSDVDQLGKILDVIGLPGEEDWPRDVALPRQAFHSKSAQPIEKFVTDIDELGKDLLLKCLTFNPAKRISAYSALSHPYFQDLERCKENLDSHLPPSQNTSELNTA
CDK6/CCND1, sequence (P24385 whole entry partner): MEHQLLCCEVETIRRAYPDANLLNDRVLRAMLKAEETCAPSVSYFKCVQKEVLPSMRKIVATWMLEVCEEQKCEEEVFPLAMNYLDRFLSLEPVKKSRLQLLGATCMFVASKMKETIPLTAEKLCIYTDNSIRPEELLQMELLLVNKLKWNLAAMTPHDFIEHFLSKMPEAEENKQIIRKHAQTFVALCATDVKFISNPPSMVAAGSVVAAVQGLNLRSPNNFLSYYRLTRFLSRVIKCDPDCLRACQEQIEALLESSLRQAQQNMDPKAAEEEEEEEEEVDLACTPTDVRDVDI
Outline: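 Recombinant CDK6/CCND1 (1 nM final) was preincubated with compound for 20 min at 23 °C in HEPES buffer with MgCl2, EGTA, DTT and Tween 20. Kinase reaction then ran 60 min at 23 °C with 1 mM ATP and 50 nM ULight-4E-BP1 (Thr37/46) peptide, and was stopped with EDTA.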

[5] = >250 nM marked x, read-out: CDK2/CCNE IC50 >250 nM
[6] = >250 nM marked x, read-out: CDK1/CCNB IC50 >250 nM
[7] = >250 nM marked x, read-out: CDK4/CCND IC50 >250 nM
[8] = >250 nM marked x, read-out: CDK6/CCND IC50 >250 nM
[9] = 25-250 nM marked x, read-out: CDK6/CCND IC50 25-250 nM
[10] = x = IC50 25-250 nM, read-out: CDK2/CCNE IC50 (25-250 nM)
[11] = x = IC50 >250 nM, read-out: CDK1/CCNB IC50 (>250 nM column)
[12] = x = IC50 >250 nM, read-out: CDK4/CCND IC50 (>250 nM column)
[13] = x = IC50 >250 nM, read-out: CDK6/CCND IC50 (>250 nM column)
[14] = x = IC50 <25 nM, read-out: CDK2/CCNE IC50 (<25 nM)
[15] = x = IC50 25-250 nM, read-out: CDK4/CCND IC50 (25-250 nM)
[16] = x = IC50 25-250 nM, read-out: CDK6/CCND IC50 (25-250 nM)
[17] = x = IC50 25-250 nM, read-out: CDK1/CCNB IC50 (25-250 nM)

Row | Compound | IC50 [2, 11] [nM] | IC50 [3, 12] [nM] | IC50 [4, 13] [nM] | IC50 [1, 14] [nM] | IC50 [4, 16] [nM] | other results
1 | CS(=O)(=O)c1ccc(Nc2cc3c(C4CCN(S(=O)(=O)c5cccnc5)C4)nccc3cn2)cc1 (racemic) [Ex 238, N-(4-(methylsulfonyl)phenyl)-5-(1-(pyridin-3-ylsulfonyl)pyrrolidin-3-yl)-2,6-naphthyridin-3-amine] |  |  |  |  |  | IC50 [1, 5]: > 250 nM; IC50 [2, 6]: > 250 nM; IC50 [3, 7]: > 250 nM; IC50 [4, 8]: > 250 nM
2 | CS(=O)(=O)c1ccc(Nc2cc3c(C4CCN(S(=O)(=O)C5CC5)C4)nccc3cn2)cc1 (racemic) [Ex 239, 5-(1-(cyclopropylsulfonyl)pyrrolidin-3-yl)-N-(4-(methylsulfonyl)phenyl)-2,6-naphthyridin-3-amine] |  |  |  |  |  | IC50 [1, 5]: > 250 nM; IC50 [2, 6]: > 250 nM; IC50 [3, 7]: > 250 nM; IC50 [4, 8]: > 250 nM
3 | CS(=O)(=O)c1ccc(Nc2cc3c(C4=CC(O)CCC4)nccc3cn2)cc1 (racemic) [Ex 240, 3-(7-((4-(methylsulfonyl)phenyl)amino)-2,6-naphthyridin-1-yl)cyclohex-2-en-1-ol] |  |  |  |  |  | IC50 ([1]; 25-250 nM marked x, read-out: CDK2/CCNE IC50 25-250 nM): 25 to 250 nM; IC50 [2, 6]: > 250 nM; IC50 [3, 7]: > 250 nM; IC50 [4, 9]: 25 to 250 nM
4 | CS(=O)(=O)c1ccc(Nc2cc3c(C#CC4CCC(C#N)CC4)nccc3cn2)cc1 (racemic) [Ex 252, 4-((7-((4-(methylsulfonyl)phenyl)amino)-2,6-naphthyridin-1-yl)ethynyl)cyclohexane-1-carbonitrile] |  |  |  |  |  | IC50 ([1]; <25 nM, read-out: CDK2/CCNE IC50 <25 nM): < 25 nM; IC50 [2, 6]: > 250 nM; IC50 ([3]; 25-250 nM marked x, read-out: CDK4/CCND IC50 25-250 nM): 25 to 250 nM; IC50 [4, 9]: 25 to 250 nM
5 | N=S(=O)(c1ccc(Nc2cc3c(C#Cc4cccnc4N)nccc3cn2)cc1)C1CCC1 (racemic) [Ex 416, (4-((5-((2-aminopyridin-3-yl)ethynyl)-2,6-naphthyridin-3-yl)amino)phenyl)(cyclobutyl)(imino)-l6-sulfanone] | > 250 | > 250 | > 250 |  |  | IC50 [1, 10]: 25 to 250 nM
6 | CN=S(C)(=O)c1ccc(Nc2cc3c(-c4ccc5c(cnn5CC(O)(C(F)(F)F)C(F)(F)F)c4C)nccc3cn2)cc1 (racemic) [Ex 470, methyl(4-((5-(4-methyl-1-(3,3,3-trifluoro-2-hydroxy-2-(trifluoromethyl)propyl)-1H-indazol-5-yl)-2,6-naphthyridin-3-yl)amino)phenyl)(methylimino)-l6-sulfanone] | > 250 | > 250 | > 250 |  |  | IC50 [1, 10]: 25 to 250 nM
7 | CCS(=N)(=O)c1ccc(Nc2cc3c(-c4ccc5c(cnn5CC(O)(C(F)(F)F)C(F)(F)F)c4C)nccc3cn2)cc1 (racemic) [Ex 473, ethyl(imino)(4-((5-(4-methyl-1-(3,3,3-trifluoro-2-hydroxy-2-(trifluoromethyl)propyl)-1H-indazol-5-yl)-2,6-naphthyridin-3-yl)amino)phenyl)-l6-sulfanone] | > 250 |  |  | < 25 | 25 to 250 | IC50 [3, 15]: 25 to 250 nM
8 | CS(=O)(=O)c1ccc(Nc2cc3c(C#CC(O)CO)nccc3cn2)cc1 (racemic) [Ex 477, 4-(7-((4-(methylsulfonyl)phenyl)amino)-2,6-naphthyridin-1-yl)but-3-yne-1,2-diol] | > 250 | > 250 | > 250 | < 25 |  | 
9 | CCS(=N)(=O)c1ccc(Nc2cc3c(C#Cc4ccc5oc(=O)[nH]c5c4)nccc3cn2)cc1 (racemic) [Ex 479, 5-((7-((4-(ethylsulfonimidoyl)phenyl)amino)-2,6-naphthyridin-1-yl)ethynyl)benzo[d]oxazol-2(3H)-one] |  |  |  | < 25 | 25 to 250 | IC50 [2, 17]: 25 to 250 nM; IC50 [3, 15]: 25 to 250 nM
10 | CCS(=N)(=O)c1ccc(Nc2cc3c(C#Cc4ccc(=O)[nH]n4)nccc3cn2)cc1 (racemic) [Ex 485, 6-((7-((4-(ethylsulfonimidoyl)phenyl)amino)-2,6-naphthyridin-1-yl)ethynyl)pyridazin-3(2H)-one] | > 250 | > 250 | > 250 | < 25 |  | 

The next lines start with results.

Row | IC50 [2, 11] [nM] | IC50 [3, 12] [nM] | IC50 [4, 13] [nM] | IC50 [1, 14] [nM] | IC50 [4, 16] [nM] | Compound | other results
11 | > 250 | > 250 | > 250 |  |  | CCS(=N)(=O)c1ccc(Nc2cc3c(C#Cc4cccnc4N)nccc3cn2)cc1 (racemic) [Ex 489, (4-((5-((2-aminopyridin-3-yl)ethynyl)-2,6-naphthyridin-3-yl)amino)phenyl)(ethyl)(imino)-l6-sulfanone] | IC50 [1, 10]: 25 to 250 nM
12 |  |  | > 250 | < 25 | 25 to 250 | CS(=N)(=O)c1ccc(Nc2cc3c(C#Cc4ccc5oc(=O)[nH]c5c4)nccc3cn2)cc1 (racemic) [Ex 491, 5-((7-((4-(S-methylsulfonimidoyl)phenyl)amino)-2,6-naphthyridin-1-yl)ethynyl)benzo[d]oxazol-2(3H)-one] | IC50 [2, 17]: 25 to 250 nM; IC50 [3, 15]: 25 to 250 nM
13 | > 250 | > 250 | > 250 | < 25 |  | CS(=N)(=O)c1ccc(Nc2cc3c(C#Cc4ccc(=O)[nH]n4)nccc3cn2)cc1 (racemic) [Ex 497, 6-((7-((4-(S-methylsulfonimidoyl)phenyl)amino)-2,6-naphthyridin-1-yl)ethynyl)pyridazin-3(2H)-one] | 
14 | > 250 | > 250 | > 250 |  |  | CS(=N)(=O)c1ccc(Nc2cc3c(C#Cc4ccc(C#N)cc4)nccc3cn2)cc1 (racemic) [Ex 526, 4-((7-((4-(S-methylsulfonimidoyl)phenyl)amino)-2,6-naphthyridin-1-yl)ethynyl)benzonitrile] | IC50 [1, 10]: 25 to 250 nM
15 | > 250 | > 250 |  | < 25 | 25 to 250 | CC(CCO)N1CCc2cc(-c3nccc4cnc(Nc5ccc(S(C)(=O)=O)cc5)cc34)ccc2C1 (racemic) [Ex 619, 3-(6-(7-((4-(methylsulfonyl)phenyl)amino)-2,6-naphthyridin-1-yl)-3,4-dihydroisoquinolin-2(1H)-yl)butan-1-ol] | 
16 | > 250 |  |  | < 25 | 25 to 250 | CC(O)CN1CCc2cc(-c3nccc4cnc(Nc5ccc(S(C)(=O)=O)cc5)cc34)ccc2C1 (racemic) [Ex 628, 1-(6-(7-((4-(methylsulfonyl)phenyl)amino)-2,6-naphthyridin-1-yl)-3,4-dihydroisoquinolin-2(1H)-yl)propan-2-ol] | IC50 [3, 15]: 25 to 250 nM
17 | > 250 | > 250 | > 250 |  |  | Cn1cc(C2CCN(c3nccc4cnc(Nc5ccc(S(C)(=O)=O)cc5)cc34)C2)cn1 (racemic) [Ex 654, 5-(3-(1-methyl-1H-pyrazol-4-yl)pyrrolidin-1-yl)-N-(4-(methylsulfonyl)phenyl)-2,6-naphthyridin-3-amine] | IC50 ([1]; x = IC50 >250 nM, read-out: CDK2/CCNE IC50 (>250 nM column)): > 250 nM
18 |  |  |  | < 25 | 25 to 250 | Cc1c(-c2nccc3cnc(Nc4ccc(S(C)(=O)=O)cc4)cc23)ccc2c1cnn2CC(C)O (racemic) [Ex 672, 1-(4-methyl-5-(7-((4-(methylsulfonyl)phenyl)amino)-2,6-naphthyridin-1-yl)-1H-indazol-1-yl)propan-2-ol] | IC50 [2, 17]: 25 to 250 nM; IC50 [3, 15]: 25 to 250 nM
19 | > 250 | > 250 | > 250 |  |  | Cc1c(-c2nccc3cnc(Nc4ccc(S(C)(=O)=O)cc4)cc23)ccc2nn(CC(C)O)cc12 (racemic) [Ex 675, 1-(4-methyl-5-(7-((4-(methylsulfonyl)phenyl)amino)-2,6-naphthyridin-1-yl)-2H-indazol-2-yl)propan-2-ol] | IC50 [1, 10]: 25 to 250 nM
